Data reported in patent US5767236A, “Linear therapeutic peptides” (Biomeasure, Inc., priority 1995, dated 1998).
Non-standard residues stand in square brackets, D forms with d. Residues, ends and D or L forms follow the SMILES beside them. *: point of attachment. Propionyl = CCC(=O)*

Legend:
M7777 hepatoma = test: Subcutaneous tumor assay, M7777 hepatoma; assay type: in vivo, rat; conditions: 100 μg/injection, s.c., b.i.d.
Procedure: (§1) Treatment of tumors induced by subcutaneous implantation of in vitro maintained cell cultures was initiated only when well established as progressively growing tumors in the first transplant generation from in vitro culture. "No takes" were culled and animals with tumors of similar size were carefully randomized into control and test groups.
(§2) Analogues were tested against all tumor systems except SCLC's and NSCLC's at a screening dose of 100 μg/injection, s.c., in the flank opposite from the tumor, b.i.d. Lung tumors (SCLC and NSCLC) were tested at 250 μg/injection, s.c., b.i.d. Rat breast tumors were tested at 400 Ag/injection, s.c., b.i.d., an equivalent extrapolation from the mouse dose.
(§3) In vivo transplantation established tumor systems were implanted s.c. as a 1-2 mm^3 mince of tumor tissue. Treatment was initiated within 2 to 3 days of implantation.
(§4) Tumor weights (mgs) from tumor dimensions (mm×mm) were calculated following the formula of a prolate ellipsoid: […]
(§5) L×W^2 /2, where L is the longer of the two measurements.
(§6) Tumor measurements were determined with a vernier caliper three times/week.

[1] = system: 11095 squamous cell carcinoma of the rat prostate; test: Subcutaneous tumor assay, 11095 prostate tumor; assay type: in vivo; conditions: 11095, s.c. xenografts in athymic nudes, 100 μg/injection, b.i.d.
Procedure: as §1, §2, §3, §4, §5, §6
11095 Androgen insensitive, squamous cell carcinoma of the rat
prostate. Originating and transplantable in Fischer 344
strain rats. Tested as subcutaneous xenografts in […]

[2] = system: NCI-H345 human small cell lung cancer (SCLC); test: Subcutaneous tumor assay, NCI-H345 lung tumor; assay type: in vivo
Procedure: as §1, §2, §3, §4, §5, §6
An in vitro maintained human small cell lung cancer
(SCLC) graciously prided by Dr. A. Gazdar. Cell
agglomerates produce slow, progressively growing tumors
in approximately 80% of athymic nude mice
when implanted subcutaneously. Tested as
well established subcutaneous
xenografts in athymic nudes.

[3] = system: MX-1 human mammary carcinoma; test: Subcutaneous tumor assay, MX-1 breast tumor; assay type: in vivo; conditions: MX-1, s.c. xenografts in athymic nude females, 100 μg/injection, b.i.d.
Procedure: as §1, §2, §3, §4, §5, §6
MX-1 Estrogen independent, human poorly
carcinoma. Tested as subcutaneous xenografts in athymic

[4] = system: 13762NF rat mammary tumor; test: Subcutaneous tumor assay, 13762NF breast tumor; assay type: in vivo; conditions: 13762NF in Fischer 344 strain rats; rat breast tumors tested at 400 Ag/injection, s.c., b.i.d.
Procedure: as §1, §2, §3, §4, §5, §6
13762NF Estrogen insensitive rat mammary tumor transplantable in
Fischer 344 strain rats.

CX-1 colon tumor = test: Subcutaneous tumor assay, CX-1 colon tumor; assay type: in vivo, human; conditions: 100 μg/injection, s.c., b.i.d.
Procedure: as §1, §2, §3, §4, §5, §6
CZ-1 Mucinous adenocarcinoma, human, tested as xenografts in […]

CX-5 colon tumor = test: Subcutaneous tumor assay, CX-5 colon tumor; assay type: in vivo, human; conditions: 100 μg/injection, s.c., b.i.d.
Procedure: as §1, §2, §3, §4, §5, §6
GOB-G Moderately differentiated adenocarcinoma, human, tested
as xenografts in athymic nude females.

MT/W9Q-S breast tumor = test: Subcutaneous tumor assay, MT/W9Q-S breast tumor; assay type: in vivo; conditions: rat breast tumors tested at 400 Ag/injection, s.c., b.i.d.
Procedure: as §1, §2, §3, §4, §5, §6

[5] = system: 2PR121D(1)/R adenocarcinoma of the rat prostate; test: Subcutaneous tumor assay, 2PR121D(1)/R prostate tumor; assay type: in vivo; conditions: s.c. tumors in Nb strain rats, 100 μg/injection, b.i.d.
Procedure: as §1, §2, §3, §4, §5, §6
Androgen resistant, poorly
differentiated adenocarcinoma
of the rate prostate derived as an androgen resistant
subline of 2PR121D(1)/S. Tested as subcutaneous tumors

M5123 hepatoma = test: Subcutaneous tumor assay, M5123 hepatoma; assay type: in vivo, rat; conditions: 100 μg/injection, s.c., b.i.d.
Procedure: as §1, §2, §3, §4, §5, §6

[6] = system: A-549 human non-small cell lung cancer (NSCLC); test: Subcutaneous tumor assay, A-549 lung tumor; assay type: in vivo
Procedure: as §1, §2, §3, §4, §5, §6
A-549 An in vitro maintained human non-small cell lung cancer
(NSCLC) obtained from the American Type Culture
Collection repository. Implanted s.c. as a cell
suspension and resultant tumors treated when tumors were […]

[7] = system: AT-3 carcinoma of the rat prostate; test: Subcutaneous tumor assay, AT-3 prostate tumor; assay type: in vivo; conditions: AT-3, s.c. xenografts in athymic nudes, 100 μg/injection, b.i.d.
Procedure: as §1, §2, §3, §4, §5, §6
AT-3 Androgen resistant, undifferentiated fast growing
carcinoma of the rat prostate. A subline of R-3327-H.
Tested as subcutaneous xenografts in athymic nudes.

M7806 hepatoma = test: Subcutaneous tumor assay, M7806 hepatoma; assay type: in vivo, rat; conditions: 100 μg/injection, s.c., b.i.d.
Procedure: as §1, §2, §3, §4, §5, §6

[8] = system: different human and animal tumors; test: Assay on inhibition of tumor growth, overall statement; assay type: in vivo; conditions: summary of Table 3; inhibitory activity when Percent Test/Control < 80% T/C
Procedure: as §1, §2, §3, §4, §5, §6

GRP receptor = target: T1, GRP receptor (Rattus norvegicus, UniProt P52500); test: Assay on binding to GRP receptor ([125I-Tyr4]bombesin displacement, AR42J cell membranes); conditions: rat AR42J cell membranes, [125I-Tyr4]bombesin, 30 min, 4° C.; read-out: IC50, affinity binding for the GRP receptors
T1 construct: endogenous in cells; host or cells: rat AR42J pancreatic acinar cells (membrane preparation)
Procedure: Rat AR42J pancreatic acinar cells were cultured in Dulbecco's modified Eagle's medium without antibiotics and supplemented with 10% (vol/vol) fetal calf serum. The incubation atmosphere consisted of 10% C)2 -90% humidified air at 37° C.
Membranes for the bombesin receptor binding assay were obtained by homogenizing AR42J cells (Polytron, setting 6, 15 sec) in ice-cold 50 mM Tris-HCl (Buffer A) and centrifuging twice at 39,000× g (10 min), with an intermediate resuspension in fresh buffer. The final pellets were resuspended in 50 mM Tris-HCl, containing 0.1 mg/ml bacitracin, and 0.1% BSA (Buffer B), and held on ice for the receptor binding assay.
For assay, aliquots (0.4 ml) were incubated with 0.05 ml [^125 I-Tyr^4 ] bombesin (~2200 Ci/mmol, New England Nuclear) and Buffer B, with and without 0.05 ml of unlabeled competing analogs. After a 30 min incubation (4° C.), the bound [^125 I-Tyr^4 ] bombesin was separated from the free by rapid filtration through GF/B filters which had been previously soaked in 0.1% polyethyleneimine. The filters were then washed three times with 5 ml aliquots of ice-cold Buffer A. Specific binding was defined as the total [^125 I-Tyr^4 ] bombesin bound minus that bound in the presence of 1 μM unlabeled bombesin.

T1 sequence (P52500 whole entry): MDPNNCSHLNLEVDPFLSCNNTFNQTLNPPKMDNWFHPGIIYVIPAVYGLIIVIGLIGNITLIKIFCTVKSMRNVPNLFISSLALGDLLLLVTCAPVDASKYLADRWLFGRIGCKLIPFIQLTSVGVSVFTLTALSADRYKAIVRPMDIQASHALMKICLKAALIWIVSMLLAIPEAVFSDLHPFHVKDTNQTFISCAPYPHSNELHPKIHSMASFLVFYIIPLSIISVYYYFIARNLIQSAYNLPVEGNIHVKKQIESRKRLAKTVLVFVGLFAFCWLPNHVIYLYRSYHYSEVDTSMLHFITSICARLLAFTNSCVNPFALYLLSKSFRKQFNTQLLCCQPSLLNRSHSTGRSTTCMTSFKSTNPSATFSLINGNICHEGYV

Compound | Percent Test/Control (tumor weight) (M7777 hepatoma) [%] | Percent Test/Control (tumor weight) (CX-5 colon tumor) [%] | Percent Test/Control (tumor weight) (M5123 hepatoma) [%] | inhibition of the growth of different human and animal tumors [8] | IC50 (GRP receptor) [nM] | further results
CC(C)C[C@H](NC(=O)[C@H](CC(C)C)NC(=O)[C@H](Cc1c[nH]cn1)NC(=O)CNC(=O)[C@@H](NC(=O)[C@H](C)NC(=O)[C@H](Cc1c[nH]c2ccccc12)NC(=O)[C@H](CCC(N)=O)NC(=O)[C@H](N)Cc1ccccc1)C(C)C)C(N)=O [BIM-26187, H-D-Phe-Gln-Trp-Ala-Val-Gly-His-Leu-Leu-NH2] | 67 | 83 | 62 | capable of inhibiting the growth | 5 | Percent Test/Control (tumor weight) [1]: 50%; Percent Test/Control (tumor weight) ([2]; NCI-H345 SCLC, s.c. xenografts in athymic nudes, 250 μg/injection, s.c., b.i.d.): 66%; Percent Test/Control (tumor weight) [3]: 78%; Percent Test/Control (tumor weight) [4]: 70%; Percent Test/Control (tumor weight) (CX-1 colon tumor): 31%; Percent Test/Control (tumor weight) (MT/W9Q-S breast tumor): 45%; Percent Test/Control (tumor weight) [5]: 70%; Percent Test/Control (tumor weight) ([6]; A-549 NSCLC, implanted s.c., 250 μg/injection, s.c., b.i.d.): 63%; growth inhibitory effect on non-small cell lung carcinoma (NSCLC) ([6]; FIG. 2): capable of inhibiting; Percent Test/Control (tumor weight) [7]: 36%; Percent Test/Control (tumor weight) (M7806 hepatoma): 83%
CSCC[C@H](NC(=O)[C@H](CC(C)C)NC(=O)[C@H](Cc1c[nH]cn1)NC(=O)CNC(=O)[C@@H](NC(=O)[C@H](C)NC(=O)[C@H](Cc1c[nH]c2ccccc12)NC(=O)[C@H](CCC(N)=O)NC(=O)[C@H](N)Cc1ccccc1)C(C)C)C(N)=O [BIM-26218, H-D-Phe-Gln-Trp-Ala-Val-Gly-His-Leu-Met-NH2] |  |  | 70 | capable of inhibiting the growth |  | 
CCCC[C@H](NC(=O)[C@H](Cc1ccccc1)NC(=O)[C@H](Cc1c[nH]cn1)NC(=O)CNC(=O)[C@@H](NC(=O)[C@H](C)NC(=O)[C@H](Cc1c[nH]c2ccccc12)NC(=O)[C@H](CCC(N)=O)NC(=O)[C@H](N)Cc1ccccc1)C(C)C)C(N)=O [BIM-26224, H-D-Phe-Gln-Trp-Ala-Val-Gly-His-Phe-Nle-NH2] |  |  |  |  | 0.7 | growth inhibitory effect on small cell lung carcinoma (SCLC) ([2]; FIG. 1): capable of inhibiting
CC(=O)N[C@@H](Cc1c[nH]cn1)C(=O)N[C@@H](Cc1c[nH]c2ccccc12)C(=O)N[C@@H](C)C(=O)N[C@H](C(=O)NCC(=O)N[C@@H](Cc1c[nH]cn1)C(=O)N[C@@H](CC(C)C)C(=O)N[C@@H](CC(C)C)C(N)=O)C(C)C [BIM-26225, Acetyl-His-Trp-Ala-Val-Gly-His-Leu-Leu-NH2] (Ac-HWAVGHLL-NH2) | 52 |  |  | capable of inhibiting the growth |  | 
CCC(=O)N[C@@H](Cc1c[nH]cn1)C(=O)N[C@@H](Cc1c[nH]c2ccccc12)C(=O)N[C@@H](C)C(=O)N[C@H](C(=O)N[C@H](C)C(=O)N[C@@H](Cc1c[nH]cn1)C(=O)N[C@@H](CC(C)C)C(=O)N[C@@H](CC(C)C)C(N)=O)C(C)C [BIM-26247, Propionyl-His-Trp-Ala-Val-D-Ala-His-Leu-Leu-NH2] (Propionyl-HWAV[dA]HLL-NH2) |  | 54 |  | capable of inhibiting the growth |  | 
CSCC[C@H](NC(=O)[C@H](Cc1ccccc1)NC(=O)[C@H](Cc1c[nH]cn1)NC(=O)CNC(=O)[C@@H](NC(=O)[C@H](C)NC(=O)[C@H](Cc1c[nH]c2ccccc12)NC(=O)[C@H](CCC(N)=O)NC(=O)[C@H](N)Cc1ccccc1)C(C)C)C(N)=O [BIM-26269, H--D-Phe--Gln--Trp--Ala--Val--Gly--His--Phe--Met--NH2] |  |  |  |  | 1.4 | 
